This note sets out measurements from ChEMBL document CHEMBL1909046, “DrugMatrix in vitro pharmacology data”.

Assay [1] can be described thus: DRUGMATRIX: Sodium/nucleoside co-transporter radioligand binding (ligand: nitrobenzylthioinosine). The format is cell membranes, Cavia porcellus, Dunkin-Hartley, Cerebral cortex, Membrane. To be noted: Not Active = under 50% inhibition at 10 µM.
Assay [2] has as its target Aldo-keto reductase family 1 member B1 (Rattus norvegicus, UniProt P07943). Kind of assay: biochemical. It counts as tissue-based, Lens of camera-type eye.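 Also: inhibition of aldose reductase enzyme activity, measured with DL-glyceraldehyde as the substrate; in other assays of this panel Not Active means under 50% inhibition at 10 µM.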
Assay [3] concerns the target 5-hydroxytryptamine receptor 6 (Homo sapiens, UniProt P50406). The format is cell membranes, HeLa, Membrane. Also: in other assays of this panel Not Active means under 50% inhibition at 10 µM.
In a further assay the target is Substance-P receptor (Homo sapiens, UniProt P25103). The format is cell membranes, Membrane. Conditions: cho. Also: in other assays of this panel Not Active means under 50% inhibition at 10 µM.
The next assay addresses T1, Thromboxane-A synthase (Homo sapiens, UniProt P24557).
T1 sequence (P24557 whole entry): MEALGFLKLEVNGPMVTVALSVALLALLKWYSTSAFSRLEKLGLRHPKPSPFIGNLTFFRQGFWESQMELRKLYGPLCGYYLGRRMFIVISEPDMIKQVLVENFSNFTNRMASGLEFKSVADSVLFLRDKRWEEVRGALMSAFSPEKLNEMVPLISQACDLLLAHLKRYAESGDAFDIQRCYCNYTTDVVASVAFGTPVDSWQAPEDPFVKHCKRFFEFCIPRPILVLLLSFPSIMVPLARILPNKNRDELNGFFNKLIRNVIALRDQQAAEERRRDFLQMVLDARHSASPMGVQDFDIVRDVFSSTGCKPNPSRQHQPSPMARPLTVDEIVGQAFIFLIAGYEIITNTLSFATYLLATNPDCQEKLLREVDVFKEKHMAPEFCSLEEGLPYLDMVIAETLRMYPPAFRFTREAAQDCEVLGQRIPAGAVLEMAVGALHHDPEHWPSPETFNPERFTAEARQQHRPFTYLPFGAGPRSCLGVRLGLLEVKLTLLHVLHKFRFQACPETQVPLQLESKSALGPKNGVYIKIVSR
Kind of assay: biochemical. To be noted: platelet. It counts as tissue-based, Platelet.

In assay [4] the target is Epidermal growth factor receptor (Homo sapiens, UniProt P00533). Put plainly: DRUGMATRIX: Protein Tyrosine Kinase, EGF Receptor enzyme inhibition (substrate: Poly(Glu:Tyr)). The format is cell-based, Insect cells. Conditions: insect cells, Not Active = under 50% inhibition at 10 µM.

Substance-P receptor, sequence (P25103 whole entry): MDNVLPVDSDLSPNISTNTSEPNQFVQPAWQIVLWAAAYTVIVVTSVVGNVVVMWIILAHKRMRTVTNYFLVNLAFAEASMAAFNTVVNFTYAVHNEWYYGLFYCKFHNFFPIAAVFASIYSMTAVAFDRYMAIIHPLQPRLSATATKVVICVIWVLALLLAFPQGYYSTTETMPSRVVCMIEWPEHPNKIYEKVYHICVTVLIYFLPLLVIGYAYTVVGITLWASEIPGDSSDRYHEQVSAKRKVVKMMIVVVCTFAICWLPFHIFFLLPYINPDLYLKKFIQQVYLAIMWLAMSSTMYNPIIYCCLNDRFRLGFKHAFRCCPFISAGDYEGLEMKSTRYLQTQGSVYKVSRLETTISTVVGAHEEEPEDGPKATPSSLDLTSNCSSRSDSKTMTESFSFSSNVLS
5-hydroxytryptamine receptor 6, sequence (P50406 whole entry): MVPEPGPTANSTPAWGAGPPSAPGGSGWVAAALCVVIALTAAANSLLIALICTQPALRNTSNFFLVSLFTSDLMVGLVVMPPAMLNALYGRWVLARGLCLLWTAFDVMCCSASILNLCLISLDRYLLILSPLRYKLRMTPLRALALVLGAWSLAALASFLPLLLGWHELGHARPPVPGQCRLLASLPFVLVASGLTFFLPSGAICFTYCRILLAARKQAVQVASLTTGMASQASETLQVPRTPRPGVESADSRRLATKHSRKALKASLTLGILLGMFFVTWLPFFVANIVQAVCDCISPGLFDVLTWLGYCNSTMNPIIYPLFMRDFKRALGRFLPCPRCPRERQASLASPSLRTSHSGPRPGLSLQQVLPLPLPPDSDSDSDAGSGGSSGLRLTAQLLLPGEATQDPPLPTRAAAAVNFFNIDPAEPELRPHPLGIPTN

As usually defined, the IC50 is the concentration at which inhibition is half-maximal. The term Ki denotes a measure of affinity in units of concentration, obtained from inhibition or displacement. Turning to `C[N+](C)(C)CCOC(N)=O.[Cl-]` [CARBACHOL], the half-maximal inhibitory concentration (IC50) entry (in assay [1]; in assay [2]; in assay [3] (hela); against Substance-P receptor; against Thromboxane-A synthase; in assay [4]) was “Not Active” throughout. For the same compound, the Ki result in assay [1] is given as “Not Active”.

As to `C[C@]12CC[C@@H](O)C[C@@H]1CC[C@@H]1[C@@H]2CC[C@]2(C)C(=O)CC[C@@H]12` [ANDROSTERONE], the concentration for half-maximal inhibition (IC50) entry (in assay [1]; in assay [2]; in assay [3] (hela); against Substance-P receptor; against Thromboxane-A synthase; in assay [4]) was “Not Active” throughout. The Ki result in assay [1] is on record as “Not Active”.

As for `C[C@H](C(=O)O)c1ccc2oc(-c3ccc(F)cc3)nc2c1` [FLUNOXAPROFEN], the IC50 result (in assay [1]; in assay [2]; in assay [3] (hela); against Substance-P receptor; against Thromboxane-A synthase; in assay [4]) was “Not Active” each time. Besides, the Ki entry in assay [1] was “Not Active”.

As to COPPER(II) OXIDE, the IC50 entry (in assay [1]; in assay [2]; in assay [3] (hela); on Substance-P receptor; against Thromboxane-A synthase; in assay [4]) was “Not Active” in each case. The inhibition constant (Ki) entry (in assay [1]; in assay [2]; in assay [3] (hela); on Substance-P receptor; on Thromboxane-A synthase; in assay [4]) was “Not Active” in each case.

For `NC(=O)CN1CCCC1=O`, the half-inhibitory concentration (IC50) entry (in assay [1]; in assay [2]; in assay [3] (hela); against Substance-P receptor; at Thromboxane-A synthase; in assay [4]) was “Not Active” each time. Moreover, the inhibition constant Ki entry in assay [1] is “Not Active”.

`O=C1c2ccccc2C(=O)C1c1ccccc1` [PHENINDIONE]: the IC50 result (in assay [1]; in assay [2]; in assay [3] (hela); on Substance-P receptor; against Thromboxane-A synthase; in assay [4]) was “Not Active” each time. Also, the Ki entry in assay [1] is recorded as “Not Active”.

On to `CCN1C[C@]2(COC)[C@H](O)C[C@H](OC)[C@@]34[C@@H]5C[C@@]6(O)[C@H](OC(=O)c7ccccc7)[C@@H]5[C@@](OC(C)=O)([C@@H]([C@H](OC)[C@H]23)[C@@H]14)[C@@H](O)[C@@H]6OC` [ACONITINE], for which the half-maximal inhibitory concentration (IC50) entry (in assay [1]; in assay [2]; in assay [3] (hela); on Substance-P receptor; against Thromboxane-A synthase; in assay [4]) was “Not Active” in each case. For the same compound, the Ki entry in assay [1] is listed as “Not Active”.

As for `O=C(NCCN1CCOCC1)c1ccc(Cl)cc1` [MOCLOBEMIDE], the IC50 result (in assay [1]; in assay [2]; in assay [3] (hela); against Substance-P receptor; on Thromboxane-A synthase; in assay [4]) was “Not Active” in each case. The inhibition constant (Ki) result in assay [1] is given as “Not Active”.

Turning to `O=C(O)COC(=O)Cc1ccccc1Nc1c(Cl)cccc1Cl` [ACECLOFENAC], the IC50 entry in assay [1] was “Not Active”; in assay [2] (read-out: IC50) it was 1290 nM; in assay [3] (hela), “Not Active”; against Substance-P receptor, “Not Active”; against Thromboxane-A synthase it was “Not Active”; in assay [4], “Not Active”. In assay [1], the inhibition constant (Ki) entry is listed as “Not Active”.

On to `COc1cc(/C=C/C(=O)O)ccc1O` [FERULATE], for which the 50% inhibitory concentration (IC50) entry (in assay [1]; in assay [2]; in assay [3] (hela); against Substance-P receptor; on Thromboxane-A synthase; in assay [4]) was “Not Active” each time. The Ki result in assay [1] is reported as “Not Active”.

For `O=c1[nH]c2ccccc2c2ccccc12`, the IC50 entry (in assay [1]; in assay [2]; in assay [3] (hela); against Substance-P receptor; against Thromboxane-A synthase; in assay [4]) was “Not Active” in each case. Also, the Ki result in assay [1] was “Not Active”.

As to `COc1ccc(C[C@H](N)C(=O)N[C@H]2[C@@H](O)[C@H](n3cnc4c(N(C)C)ncnc43)O[C@@H]2CO)cc1` [PUROMYCIN], the IC50 result (in assay [1]; in assay [2]; in assay [3] (hela); against Substance-P receptor; at Thromboxane-A synthase; in assay [4]) was “Not Active” in each case. In assay [1], the inhibition constant Ki result was “Not Active”.

As for `NC(=O)NC(=O)Cc1ccccc1` [PHENACEMIDE], the half-maximal inhibitory concentration (IC50) entry (in assay [1]; in assay [2]; in assay [3] (hela); against Substance-P receptor; against Thromboxane-A synthase; in assay [4]) was “Not Active” throughout. In addition, the Ki entry in assay [1] is on record as “Not Active”.

For the compound `COc1ccccc1OCCNCC(O)COc1cccc2[nH]c3ccccc3c12` (stereo not drawn) [CARVEDILOL], the half-inhibitory concentration (IC50) result in assay [1] is “Not Active”; in assay [2], “Not Active”; in assay [3] (read-out: IC50), 1520 nM; against Substance-P receptor, “Not Active”; at Thromboxane-A synthase, “Not Active”; in assay [4] it was “Not Active”. The figures for the Ki result in assay [1] and in assay [3] (read-out: Ki) were “Not Active” and 705 nM, respectively.

Turning to `CC(N)Cc1c[nH]c2ccc(OCc3cccs3)cc12` (stereo not drawn) [BW-723C86], the half-maximal inhibitory concentration (IC50) entry in assay [1] was “Not Active”; in assay [2] it was “Not Active”; in assay [3] (read-out: IC50), 641 nM; on Substance-P receptor it was “Not Active”; at Thromboxane-A synthase it was “Not Active”; in assay [4], “Not Active”. For the same compound, the Ki result was “Not Active” in assay [1] and 298 nM in assay [3] (read-out: Ki).

Take `c1ccc2c(c1)Nc1ccccc1S2` [PHENOTHIAZINE]: the IC50 result (in assay [1]; in assay [2]; in assay [3] (hela); against Substance-P receptor; at Thromboxane-A synthase; in assay [4]) was “Not Active” in each case. Further, the inhibition constant (Ki) entry in assay [1] is listed as “Not Active”.

As to POVIDONE, the IC50 result (in assay [1]; in assay [2]; in assay [3] (hela); against Substance-P receptor; against Thromboxane-A synthase; in assay [4]) was “Not Active” in each case. For the same compound, the Ki result (in assay [1]; in assay [2]; in assay [3] (hela); at Substance-P receptor; at Thromboxane-A synthase; in assay [4]) was “Not Active” each time.

Turning to `CCO` [ALCOHOL], the IC50 entry (in assay [1]; in assay [2]; in assay [3] (hela); on Substance-P receptor; against Thromboxane-A synthase; in assay [4]) was “Not Active” each time. Also, the inhibition constant (Ki) result in assay [1] is recorded as “Not Active”.

With `Clc1cc(Cl)c(OCC#CI)cc1Cl` [HALOPROGIN], the IC50 entry in assay [1] is “Not Active”; in assay [2], “Not Active”; in assay [3] (read-out: IC50) it was 4010 nM; against Substance-P receptor, “Not Active”; on Thromboxane-A synthase, “Not Active”; in assay [4], “Not Active”. Further, the values for the inhibition constant (Ki) entry in assay [1] and in assay [3] (read-out: Ki) were “Not Active” and 1860 nM, respectively.

On to CHROMIC CHLORIDE, for which the IC50 entry is “Not Active” in assay [1]; “Not Active” in assay [2]; “Not Active” in assay [3] (hela); “Not Active” at Substance-P receptor; “Not Active” on Thromboxane-A synthase; 2960 nM in assay [4] (read-out: IC50). In addition, the Ki entry (in assay [1]; in assay [2]; in assay [3] (hela); at Substance-P receptor; at Thromboxane-A synthase) was “Not Active” in each case.

Regarding `Nc1ccc(Cc2ccc(N)cc2)cc1`, the half-maximal inhibitory concentration (IC50) result (in assay [1]; in assay [2]; in assay [3] (hela); against Substance-P receptor; against Thromboxane-A synthase; in assay [4]) was “Not Active” each time. For the same compound, in assay [1], the inhibition constant (Ki) entry is “Not Active”.

For the compound `COc1cc([C@@H]2c3cc4c(cc3[C@H](O)[C@H]3COC(=O)[C@H]23)OCO4)cc(OC)c1OC` [PODOFILOX], the IC50 entry (in assay [1]; in assay [2]; in assay [3] (hela); at Substance-P receptor; against Thromboxane-A synthase; in assay [4]) was “Not Active” in each case. Moreover, the inhibition constant (Ki) result in assay [1] is given as “Not Active”.

Regarding `OC[C@H]1OC2C3[C@@H](CO)OC(O[C@H]4[C@H](O)[C@@H](O)[C@@H](O[C@H]5[C@H](O)[C@@H](O)[C@@H](O[C@H]6[C@H](O)[C@@H](O)[C@@H](O[C@H]7[C@H](O)[C@@H](O)[C@@H](O[C@H]8[C@H](O)[C@@H](O)[C@@H](O[C@H]9[C@H](O)[C@@H](O)C(OC1[C@H](O)[C@H]2O)O[C@@H]9CO)O[C@@H]8CO)O[C@@H]7CO)O[C@@H]6CO)O[C@@H]5CO)O[C@@H]4CO)[C@H](O)[C@H]3O`, the IC50 result (in assay [1]; in assay [2]; in assay [3] (hela); against Substance-P receptor; on Thromboxane-A synthase; in assay [4]) was “Not Active” each time. In assay [1], the Ki result is on record as “Not Active”.
